Eleven molecules from ChEMBL document CHEMBL1201862, “PubChem BioAssay data set” (2004) can be followed below.

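A five-concentration, 48-hour dose response in 96-well plates underlies each endpoint, interpolated linearly between surrounding concentrations. At the GI50, growth is halved.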 Calls of active or inactive are those of the source. Rule as the data show it: active = GI50 up to about 1.1 µM and inactive = higher. Where a SMILES comes first, the peptide text is derived from it. Where only a bound is given, the exact number is not on record here.

Test systems include SK-OV-3; MOLT-4; HOP-62; SF-539; RXF 393; HT-29; SF-295; MCF7; HCT-15; UACC-62; SN12C; SF-268; NCI/ADR-RES; SK-MEL-2; NCI-H226; SNB-78; RPMI-8226; K562; SNB-19; HOP-18.
Test in all cases: growth of human tumour cells (NCI), 48 h

Regarding `CO/N=C1\CC(NC(=O)CNC(=O)OC(C)(C)C)c2ccsc21` (configuration not stated), the GI50 with SK-OV-3, in the test on MOLT-4, in the test on HOP-62, in the test on SF-539, with RXF 393 and in the test with HT-29 was > 100 µM (inactive) throughout. The GI50 is > 100 µM (inactive) in the test with SF-295; > 100 µM (inactive) in the test on MCF7; above 100 µM in the test on HCT-15; > 100 µM (inactive) with UACC-62; > 100 µM (inactive) with SN12C; > 100 µM (inactive) in the test with SF-268. Moreover, the GI50 in the test on NCI/ADR-RES, in the test with SK-MEL-2 and in the test on NCI-H226 was > 100 µM (inactive) each time.

With `COc1nc(NC2OCC(OC(C)=O)C(OC(C)=O)C2OC(C)=O)c(/N=C(\C)C(C)=O)c(=O)n1C` (configuration not stated), the GI50 in the test with SNB-78, with MOLT-4, with RPMI-8226, in the test on SF-539, in the test with RXF 393 and in the test with HT-29 was > 100 µM (inactive) in each case. The GI50 with SF-295 was > 100 µM (inactive); with HCT-15, above 100 µM; with SN12C it was > 100 µM (inactive); in the test with K562 it was > 100 µM (inactive); in the test on SNB-19, > 100 µM (inactive); in the test with SF-268 it was > 100 µM (inactive). The GI50 in the test on SK-MEL-2 is > 100 µM (inactive); with NCI-H226 it was 0.63 µM (active); with HOP-18 it was > 100 µM (inactive).

In the case of `CN1Nc2ccccc2CC1=O`, the GI50 in the test on SK-OV-3, in the test with SNB-78, with HOP-62, in the test with RPMI-8226, with SF-539 and with HT-29 was > 100 µM (inactive) each time. The GI50 with SF-295 is > 100 µM (inactive); in the test with HCT-15 it was above 100 µM; in the test with UACC-62 it was > 100 µM (inactive); with SN12C, > 100 µM (inactive); in the test on K562 it was > 100 µM (inactive); in the test on SNB-19, > 100 µM (inactive). The GI50 in the test on SF-268, in the test with SK-MEL-2, in the test on NCI-H226 and in the test on HOP-18 was > 100 µM (inactive) throughout.

In the case of `Nc1nc(=O)[nH]c2c1cnn2Cc1ccccc1`, the GI50 with SNB-78 is 1.46 µM (inactive); in the test on MOLT-4, > 100 µM (inactive); in the test with RPMI-8226, > 100 µM (inactive); in the test with SF-539, > 100 µM (inactive); in the test with RXF 393, 1.4 µM (inactive); in the test on HT-29 it was > 100 µM (inactive). In addition, the GI50 with SF-295 was > 100 µM (inactive); with HCT-15, above 100 µM; in the test with SN12C it was > 100 µM (inactive); in the test on K562 it was > 100 µM (inactive); with SNB-19 it was > 100 µM (inactive); in the test on SF-268, > 100 µM (inactive). Moreover, the results for the GI50 in the test with SK-MEL-2, with NCI-H226 and with HOP-18 were > 100 µM (inactive), 1.41 µM (inactive) and > 100 µM (inactive), respectively.

As for `N#CCCN(CCC#N)c1ccc(/C=C(\NC(=O)c2cc([N+](=O)[O-])ccc2Cl)C(=O)Nc2ccccc2)cc1`, the GI50 in the test on SK-OV-3 is > 100 µM (inactive); in the test with SNB-78 it was > 100 µM (inactive); with MOLT-4 it was 32.2 µM (inactive); in the test on HOP-62, 45.2 µM (inactive); with RPMI-8226 it was > 100 µM (inactive); in the test with SF-539, 49.7 µM (inactive). For the same molecule, the GI50 in the test with RXF 393 was > 100 µM (inactive); in the test on SF-295 it was 64.6 µM (inactive); with HCT-15, 4.55 µM; in the test with UACC-62 it was 4.52 µM (inactive); in the test with SN12C, > 100 µM (inactive); in the test with K562, 6.82 µM (inactive). The GI50 was > 100 µM (inactive) in the test with SNB-19; 30.8 µM (inactive) with SF-268; > 100 µM (inactive) with SK-MEL-2; 64.9 µM (inactive) in the test with NCI-H226; > 100 µM (inactive) with HOP-18.

Turning to `Cc1cc(O)nc(NN2C(Cl)C(=O)C2c2ccc([N+](=O)[O-])cc2)n1` (configuration not stated), the GI50 in the test on SNB-78 is 7.36 µM (inactive); with MOLT-4, 8.13 µM (inactive); in the test with HOP-62, 7.76 µM (inactive); in the test on RPMI-8226 it was 7.35 µM (inactive); in the test with SF-539, 10.8 µM (inactive); in the test on RXF 393 it was 0.76 µM (active). Further, the GI50 is 15.6 µM (inactive) in the test on HT-29; 7.52 µM in the test on HCT-15; 3.31 µM (inactive) in the test with UACC-62; 11.1 µM (inactive) in the test with SN12C; 3.1 µM (inactive) in the test on K562; 15.3 µM (inactive) in the test on SNB-19. Besides, the results for the GI50 with SF-268, in the test with SK-MEL-2 and in the test on HOP-18 were 13.1 µM (inactive), 6.07 µM (inactive) and 11.3 µM (inactive), respectively.

With `CCOc1ccc(/C=C2\N=C(c3ccccc3)OC2=O)cc1`, the GI50 is > 100 µM (inactive) in the test on SK-OV-3; 8.71 µM (inactive) with MOLT-4; > 100 µM (inactive) in the test on HOP-62; > 100 µM (inactive) with RPMI-8226; > 100 µM (inactive) with SF-539; > 100 µM (inactive) in the test on RXF 393. Also, the GI50 in the test with HT-29 is > 100 µM (inactive); with SF-295 it was > 100 µM (inactive); in the test with MCF7 it was > 100 µM (inactive); with HCT-15, above 100 µM; in the test on UACC-62, > 100 µM (inactive); in the test on K562, > 100 µM (inactive). The GI50 with SNB-19, in the test on SF-268, in the test on NCI/ADR-RES, with SK-MEL-2 and in the test on NCI-H226 was > 100 µM (inactive) in each case.

Turning to `NCCCCC(N)C(=O)N1CCN(c2nc(N3CCCC3)c3nc(Cl)c(NCc4ccccc4)nc3n2)CC1` (configuration not stated), the GI50 in the test with SK-OV-3 was 20.2 µM (inactive); in the test on MOLT-4 it was 24.5 µM (inactive); in the test on HOP-62, 13.9 µM (inactive); with RPMI-8226, 17.8 µM (inactive); in the test on SF-539 it was 18.5 µM (inactive); in the test with RXF 393 it was 15.9 µM (inactive). Moreover, the GI50 is 18.9 µM (inactive) in the test with HT-29; 18.5 µM (inactive) in the test on SF-295; 19.6 µM (inactive) in the test with MCF7; 17.7 µM with HCT-15; 17.9 µM (inactive) in the test with UACC-62; 18.4 µM (inactive) in the test on SN12C. Moreover, the GI50 in the test on K562 is 21.9 µM (inactive); in the test with SNB-19 it was 17.1 µM (inactive); in the test with SF-268, 20 µM (inactive); in the test with NCI/ADR-RES it was 44.6 µM (inactive); in the test on SK-MEL-2, 19 µM (inactive); in the test with NCI-H226, 20.8 µM (inactive).

`O=C1/C(=C/c2cccc(Br)c2)Cc2ccccc21`: the GI50 in the test with SK-OV-3 is 93.1 µM (inactive); in the test with MOLT-4 it was 62.7 µM (inactive); with HOP-62, 44.6 µM (inactive); in the test on RPMI-8226, 32.8 µM (inactive); in the test with SF-539, 41.8 µM (inactive); in the test with HT-29 it was 45 µM (inactive). Also, the GI50 is 39.7 µM (inactive) in the test on SF-295; 3.66 µM (inactive) in the test with MCF7; 49.4 µM in the test with HCT-15; 54.3 µM (inactive) with UACC-62; > 100 µM (inactive) in the test with SN12C; 58.9 µM (inactive) with K562. Also, the GI50 is 50.6 µM (inactive) with SNB-19; 53.6 µM (inactive) in the test with SF-268; 50.6 µM (inactive) in the test on NCI/ADR-RES; 28.8 µM (inactive) with SK-MEL-2; 21.6 µM (inactive) in the test with NCI-H226.

Regarding `COC1OCC(O)C(NC(=O)N(C)N=O)C1O` (configuration not stated), the GI50 in the test with SK-OV-3, with SNB-78, in the test on MOLT-4, in the test on HOP-62, in the test with RPMI-8226 and in the test with SF-539 was > 100 µM (inactive) throughout. In addition, the GI50 in the test on RXF 393 is > 100 µM (inactive); in the test with HT-29, > 100 µM (inactive); with SF-295, > 100 µM (inactive); with MCF7, > 100 µM (inactive); in the test with HCT-15, above 100 µM; with UACC-62 it was > 100 µM (inactive). In addition, the GI50 in the test on SN12C, in the test on K562, in the test on SNB-19, in the test on SF-268, with NCI/ADR-RES and with SK-MEL-2 was > 100 µM (inactive) each time. Besides, the GI50 in the test with NCI-H226 and with HOP-18 was > 100 µM (inactive) in each case.

Take `NC(=O)C1CCCN1C(=O)C(N)Cc1ccccc1` (stereo not drawn) (H-Phe-Pro-NH2; configuration not given here): the GI50 with MOLT-4, in the test with HOP-62, in the test with RPMI-8226, in the test on HT-29, in the test with SF-295 and with MCF7 was > 100 µM (inactive) throughout. The GI50 was above 100 µM in the test on HCT-15; > 100 µM (inactive) in the test on UACC-62; > 100 µM (inactive) with K562; > 100 µM (inactive) in the test on SNB-19; > 100 µM (inactive) in the test on SF-268; > 100 µM (inactive) in the test with NCI/ADR-RES.
